According to US8084649B2, “Herbicides” (Syngenta Crop Protection, inc., priority 2007, dated 2011):

Columns and labels:
Type in all cases: in vivo
Lolium perenne (LOLPE) [1] = experiment: Post-emergence herbicidal activity, glasshouse pot test; conditions: Lolium perenne, evaluated after 14 or 15 days, read-out: Post-emergence activity, LOLPE (100=total damage to plant; 0=no damage to plant); for pest or weed control at 125 g/ha: rate 125 g/ha; for pest or weed control at 500 g/ha: rate 500 g/ha
Method: (§1) Monocotyledonous and dicotyledonous test plants were sown in sterilised standard soil in pots. After cultivation for one day (pre-emergence) or after 10 days cultivation (post-emergence) under controlled conditions in a glasshouse, the plants were sprayed with an aqueous spray solution derived from the formulation of the technical active ingredient in 0.6 ml acetone and 45 ml formulation solution containing 10.6% Emulsogen EL (Registry number 61791-12-6), 42.2% N-methylpyrrolidone, 42.2% dipropylene glycol monomethyl ether (Registry number 34590-94-8) and 0.2% X-77 (Registry number 11097-66-8). The test plants were then grown in a greenhouse under optimum conditions until, 14 or 15 days later for post-emergence and 20 days for pre-emergence, the test was evaluated (100=total damage to plant; 0=no damage to plant). Alopecurus myosuroides (ALOMY), Avena fatua (AVEFA), Lolium perenne (LOLPE), Setaria faberi (SETFA), Digitaria sanguinalis (DIGSA), Echinochloa crus-galli (ECHCG) Post-Emergence Activity

[2] = system: Digitaria sanguinalis (DIGSA); experiment: as above; conditions: Digitaria sanguinalis, evaluated after 14 or 15 days, read-out: Post-emergence activity, DIGSA (100=total damage to plant; 0=no damage to plant); for pest or weed control at 125 g/ha: rate 125 g/ha; for pest or weed control at 500 g/ha: rate 500 g/ha
Method: as §1

[3] = system: Alopecurus myosuroides (ALOMY); experiment: as above; conditions: Alopecurus myosuroides, evaluated after 14 or 15 days, read-out: Post-emergence activity, ALOMY (100=total damage to plant; 0=no damage to plant); for pest or weed control at 125 g/ha: rate 125 g/ha; for pest or weed control at 500 g/ha: rate 500 g/ha
Method: as §1

Avena fatua (AVEFA) [4] = experiment: as above; conditions: Avena fatua, evaluated after 14 or 15 days, read-out: Post-emergence activity, AVEFA (100=total damage to plant; 0=no damage to plant); for pest or weed control at 125 g/ha: rate 125 g/ha; for pest or weed control at 500 g/ha: rate 500 g/ha
Method: as §1

[5] = system: Echinochloa crus-galli (ECHCG); experiment: as above; conditions: Echinochloa crus-galli, evaluated after 14 or 15 days, read-out: Post-emergence activity, ECHCG (100=total damage to plant; 0=no damage to plant); for pest or weed control at 125 g/ha: rate 125 g/ha; for pest or weed control at 500 g/ha: rate 500 g/ha
Method: as §1

Setaria faberi (SETFA) [6] = experiment: as above; conditions: Setaria faberi, evaluated after 14 or 15 days, read-out: Post-emergence activity, SETFA (100=total damage to plant; 0=no damage to plant); for pest or weed control at 125 g/ha: rate 125 g/ha; for pest or weed control at 500 g/ha: rate 500 g/ha
Method: as §1

Lolium perenne (LOLPE) [7] = experiment: Pre-emergence herbicidal activity, glasshouse pot test; conditions: Lolium perenne, 480 h, rate 500 g/ha, evaluated after 20 days, read-out: Pre-emergence activity, LOLPE (100=total damage to plant; 0=no damage to plant)
Method: as §1, with “Pre-Emergence” for “Post-Emergence”

[8] = system: Digitaria sanguinalis (DIGSA); experiment: as above; conditions: Digitaria sanguinalis, 480 h, rate 500 g/ha, evaluated after 20 days, read-out: Pre-emergence activity, DIGSA (100=total damage to plant; 0=no damage to plant)
Method: as §1, with “Pre-Emergence” for “Post-Emergence”

[9] = system: Alopecurus myosuroides (ALOMY); experiment: as above; conditions: Alopecurus myosuroides, 480 h, rate 500 g/ha, evaluated after 20 days, read-out: Pre-emergence activity, ALOMY (100=total damage to plant; 0=no damage to plant)
Method: as §1, with “Pre-Emergence” for “Post-Emergence”

Avena fatua (AVEFA) [10] = experiment: as above; conditions: Avena fatua, 480 h, rate 500 g/ha, evaluated after 20 days, read-out: Pre-emergence activity, AVEFA (100=total damage to plant; 0=no damage to plant)
Method: as §1, with “Pre-Emergence” for “Post-Emergence”

[11] = system: Echinochloa crus-galli (ECHCG); experiment: as above; conditions: Echinochloa crus-galli, 480 h, rate 500 g/ha, evaluated after 20 days, read-out: Pre-emergence activity, ECHCG (100=total damage to plant; 0=no damage to plant)
Method: as §1, with “Pre-Emergence” for “Post-Emergence”

Setaria faberi (SETFA) [12] = experiment: as above; conditions: Setaria faberi, 480 h, rate 500 g/ha, evaluated after 20 days, read-out: Pre-emergence activity, SETFA (100=total damage to plant; 0=no damage to plant)
Method: as §1, with “Pre-Emergence” for “Post-Emergence”

Row | Compound | pest or weed control at 125 g/ha (Lolium perenne (LOLPE) [1]) [%] | pest or weed control at 125 g/ha [2] [%] | pest or weed control at 125 g/ha [3] [%] | pest or weed control at 125 g/ha (Avena fatua (AVEFA) [4]) [%] | pest or weed control at 125 g/ha [5] [%] | pest or weed control at 125 g/ha (Setaria faberi (SETFA) [6]) [%] | pest or weed control at 500 g/ha (Lolium perenne (LOLPE) [7]) [%] | pest or weed control at 500 g/ha [8] [%] | pest or weed control at 500 g/ha [9] [%] | pest or weed control at 500 g/ha (Avena fatua (AVEFA) [10]) [%] | pest or weed control at 500 g/ha [11] [%] | pest or weed control at 500 g/ha (Setaria faberi (SETFA) [12]) [%] | pest or weed control at 500 g/ha (Lolium perenne (LOLPE) [1]) [%] | pest or weed control at 500 g/ha [2] [%] | pest or weed control at 500 g/ha [3] [%] | pest or weed control at 500 g/ha (Avena fatua (AVEFA) [4]) [%] | pest or weed control at 500 g/ha [5] [%] | pest or weed control at 500 g/ha (Setaria faberi (SETFA) [6]) [%]
1 | CCc1cc(C)cc(CC)c1C1=C(OC(=O)CCCCCCC(=O)OC)CC2(CCOCC2)CC1=O [Compound P46] | 90 | 90 | 90 | 100 | 100 | 90 | 100 | 100 | 100 | 100 | 100 | 100 |  |  |  |  |  | 
2 | CCc1cc(C)cc(C)c1C1=C(O)CC(CC(C)SC)CC1=O (centres unmarked) [Compound T10] |  |  |  |  |  |  | 100 | 100 | 100 | 70 | 100 | 100 | 100 | 90 | 100 | 100 | 90 | 90
3 | C#CCOC(=O)OC1=C(c2c(CC)cc(C)cc2CC)C(=O)CC2(CCOCC2)C1 [Compound P22] | 90 | 100 | 90 | 100 | 90 | 90 | 100 | 100 | 100 | 100 | 100 | 100 |  |  |  |  |  | 
4 | CCOCOC1=C(c2c(CC)cc(C)cc2CC)C(=O)CC2(CCOCC2)C1 [Compound P35] | 90 | 50 | 100 | 100 | 100 | 50 | 100 |  | 100 | 100 |  | 100 |  |  |  |  |  | 
5 | CCSC(C)CC1CC(=O)C(c2c(C)cc(C)cc2C)=C(O)C1 (centres unmarked) [Compound T9] |  |  |  |  |  |  | 0 | 40 | 30 | 30 |  |  | 50 | 90 | 50 | 50 | 80 | 80
6 | CCCCCCCCCC(=O)OC1=C(c2c(CC)cc(C)cc2CC)C(=O)CC2(CCOCC2)C1 [Compound P43] | 80 | 70 | 100 | 100 | 70 | 70 | 100 |  | 100 | 100 | 100 |  |  |  |  |  |  | 
7 | CCc1cc(C)cc(CC)c1C1=C(O)CC(C2CCCO2)CC1=O (centres unmarked) [Compound T8] |  |  |  |  |  |  | 100 |  | 100 | 80 | 100 | 100 | 100 | 90 | 100 | 90 | 100 | 90
8 | CCCS(=O)(=O)C(C)CC1CC(=O)C(c2c(CC)cc(C)cc2CC)=C(O)C1 (centres unmarked) [Compound T36] |  |  |  |  |  |  | 100 | 100 | 100 | 90 |  | 100 | 90 | 70 | 90 | 90 | 100 | 50
9 | CCCCCCCCCCCCCC(=O)OC1=C(c2c(CC)cc(C)cc2CC)C(=O)CC2(CCOCC2)C1 [Compound P42] | 50 | 30 | 60 | 40 | 30 | 50 | 100 |  | 100 | 90 | 100 |  |  |  |  |  |  | 
10 | CCc1cc(C)cc(CC)c1C1=C(O)CC2(CCSCC2)CC1=O [Compound T11] |  |  |  |  |  |  | 100 | 90 | 80 |  | 80 | 90 | 70 | 90 | 80 | 80 | 90 | 90
11 | CCc1cc(C)cc(CC)c1C1=C(OC(=O)C(C)(C)C)CC(C(C)(C)SC)CC1=O (centres unmarked) [Compound P52] |  |  |  |  |  |  |  | 100 | 100 | 100 | 100 | 100 | 100 | 90 | 100 | 90 | 90 | 90
12 | C=CCOC1=C(c2c(CC)cc(C)cc2CC)C(=O)CC2(CCOCC2)C1 [Compound P34] | 0 | 30 | 0 | 0 | 0 | 0 | 100 |  | 100 | 70 | 30 | 30 |  |  |  |  |  | 
